These results are taken from ChEMBL document CHEMBL1151106, “Chemical studies on mexican plants used in traditional medicine, VI. Additional new 4-phenylcoumarins from Exostema caribaeum” (1988).

The structures appear in SMILES notation. In brackets after ≈: the same amount, converted by molar mass. Activity calls are given as the source filed them. The rule behind the calls is not given here.

The assay concerns Candida albicans. In words: Antifungal activity against Candida albicans. Format: functional.
Consider `COc1cc(O[C@@H]2O[C@H](COC(C)=O)[C@H](O)[C@H](O)[C@H]2O)c2c(-c3ccc(O)c(O)c3)cc(=O)oc2c1`, for which the result was Active.
For orientation: MIC means the lowest concentration found to suppress growth. High values mean weaker potency, low ones greater potency. Regarding `COc1cc(O[C@@H]2O[C@H](CO)[C@H](O)[C@H](O)[C@H]2O)c2c(-c3ccc(O)c(O)c3)cc(=O)oc2c1`, it took 12.5 µg/mL (≈ 27 µM) to inhibit growth (MIC).
For the compound `COc1cc(O)c2c(-c3ccc(O)c(O)c3)cc(=O)oc2c1`, the outcome was inactive.
Take `COc1ccc(-c2cc(=O)oc3cc(OC)cc(O[C@@H]4O[C@H](CO)[C@H](O)[C@H](O)[C@H]4O)c23)cc1`: the outcome was Active.
As to `COc1cc(O[C@@H]2O[C@H](CO)[C@@H](O)[C@H](O)[C@H]2O)c2c(-c3ccc(O)c(O)c3)cc(=O)oc2c1`, the result was Active.
In the case of `COc1cc(O)c2c(-c3ccc(OC)c(O)c3)cc(=O)oc2c1`, the result was Active.
Consider `COc1cc2c3c(cc(=O)oc3c1)-c1cc(O)c(OC)cc1O2`, for which the outcome was inactive.
